*1 amine or outer side, *2 acyl side, *3 side chain or, on linkers, in order; H or OH if unused. Bridges are numbered along the chain shown (N, C = ends). Where no end group is shown, it is not given here. mPEG = monomethoxypolyethylene glycol; Suc = O=C(CCC(=O)[*:2])[*:1]
Tests used:
peptide α45-60 = assay: Radioimmunoassay of anti-AChR antisera from pretreated mice: antibody binding to peptide α45-60; type: in vivo, C57/BL6 mice; conditions: Group 1 compared to control groups; P>0.1-0.5
Protocol: (§1) Six weeks old C57/BL6 mice were purchased from Charles River Breeding Laboratories (Wilmington, Mass.). Preimmune sera were obtained from the mice for use as controls in subsequent antibody binding assays. After 2-weeks rest, the mice were divided into three groups which received, at eleven, seven and three days before immunization with AChR, an intraperitoneal injection (5 μg in 25 μl of PBS [0.15M NaCl in 0.01M sodium phosphate buffer, pH 7.2]) of either the mPEG-(α125-148) conjugate (Group 1), mPEG-nonsense peptide conjugate (Group 2) or unaltered free peptide α125-148 (Group 3) (FIG. 5). Then, on day 0, the mice were immunized subcutaneously in one hind footpad and intramuscularly in the same side shoulder with 20 μg of Torpedo AChR in 100 μl emulsion containing equal volumes of complete Freund's adjuvant and PBS. Thirty days later, the mice were immunized with a similar dose of the receptor in the opposite footpad and shoulder. On the 37th day, test bleeds were obtained from the mice for determination of the antibody titers. Electrophysiological studies were performed on the 38th and 39th days. […]
(§2) One mg of the synthetic peptide was dissolved in 50 μl dimethylformamide and then diluted with PBS to 25 μg/ml. […] The plates were incubated for 3 hours at room temperature, after which they were washed and the wells were cut out and counted for bound radioactivity. […]

whole Torpedo AChR = assay: Radioimmunoassay of anti-AChR antisera from pretreated mice: antibody binding to whole AChR; type: in vivo, C57/BL6 mice; conditions: Group 1 compared to control groups; P>0.5
Protocol: as §1, §2

peptide α182-198 = assay: Radioimmunoassay of anti-AChR antisera from pretreated mice: antibody binding to peptide α182-198; type: in vivo, C57/BL6 mice; conditions: Group 1 compared to control groups; P>0.1-0.5
Protocol: as §1, §2

peptide α125-148 = assay: Radioimmunoassay of anti-AChR antisera from pretreated mice: antibody binding to peptide α125-148; type: in vivo, C57/BL6 mice
Protocol: Six weeks old C57/BL6 mice were purchased from Charles River Breeding Laboratories (Wilmington, Mass.). Preimmune sera were obtained from the mice for use as controls in subsequent antibody binding assays. After 2-weeks rest, the mice were divided into three groups which received, at eleven, seven and three days before immunization with AChR, an intraperitoneal injection (5 μg in 25 μl of PBS [0.15M NaCl in 0.01M sodium phosphate buffer, pH 7.2]) of either the mPEG-(α125-148) conjugate (Group 1), mPEG-nonsense peptide conjugate (Group 2) or unaltered free peptide α125-148 (Group 3) (FIG. 5). Then, on day 0, the mice were immunized subcutaneously in one hind footpad and intramuscularly in the same side shoulder with 20 μg of Torpedo AChR in 100 μl emulsion containing equal volumes of complete Freund's adjuvant and PBS. Thirty days later, the mice were immunized with a similar dose of the receptor in the opposite footpad and shoulder. On the 37th day, test bleeds were obtained from the mice for determination of the antibody titers. Electrophysiological studies were performed on the 38th and 39th days. Finally, the mice were sacrificed on the 40th day and lymph node cells were obtained for T cell studies.
One mg of the synthetic peptide was dissolved in 50 μl dimethylformamide and then diluted with PBS to 25 μg/ml. A solution of Torpedo AChR in PBS was prepared to contain 2.5 μg/ml. Aliquots (50 μl/well) of the peptide or AChR solutions were added to a 96-well microtiter plate (Falcon Micro Test III flexible assay plate, Becton Dickinson, Oxcard, Calif.) and the plates were incubated at room temperature overnight. After washing 3 times with PBS, the plates were blocked with 0.25% bovine serum albumin (BSA [bovine serum albumin]) in PBS (50 μl/well) at 37° C. for 90 minutes. The plates were washed again 5 times with PBS and to each well was added 50 μl of the serum from AChR-immunized mice, pre-diluted with PBS containing 0.10% BSA, and the plates were covered and allowed to stand at room temperature overnight. After 5 washes with PBS, 50 μl of rabbit IgG antibodies (2.5 μg/ml) against mouse IgG and IgM (Accurate Chemical Scientific Corporation, Westbury, N.Y.) was added to each well and the plates were incubated at 37° C. for 3 hours. The plates were then washed 5 times with PBS and ^125 I-labeled protein A (2×10^5cpm in 50 μl of PBS-0.1% BSA) was added to each well. The plates were incubated for 3 hours at room temperature, after which they were washed and the wells were cut out and counted for bound radioactivity. Pre-immune serum samples, obtained from the mice prior to any experimental treatments, were used as controls to correct for non-specific binding.

lymph node cells (LNC) = assay: T cell proliferation assay of lymph node cells from AChR-primed mice; type: cell-based, C57/BL6 mice; conditions: LNC challenged with overlapping Torpedo AChR α chain peptides, α125-148 and AChR; compared with mPEG-Nonsense peptide group
Protocol: as §1, with “PBS.” for “PBS. Thirty days later, the mice were immunized with a similar dose of the receptor in the opposite footpad and shoulder. On the 37th day, test bleeds were obtained from the mice for determination of the antibody titers. Electrophysiological studies were performed on the 38th and 39th days.”
Lymph node cells (LNC) were harvested from the AChR-primed mice of each group ten or eleven days after the last AChR immunization. […] The number of viable cells was determined by vital staining with fluorescein diacetage. […] After incubation for 3 days at 37° C. in a humidified air/CO2 (19:1) atmosphere, the cultures were pulsed (18 hr) with 1 μCi/well [^3 H]-thymidine (Research Products International, Mount Prospect, Ill.) and then harvested on to glass microfiber filters (Whatman, Clinton, N.J.) for counting of radioactivity by liquid scintillation.

[1] = system: experimental autoimmune myasthenia gravis (EAMG); assay: Electromyography (repetitive nerve stimulation) for electrophysiological EAMG after immunization with Torpedo AChR; type: in vivo, C57/BL6 mice
Protocol: Six weeks old C57/BL6 mice were purchased from Charles River Breeding Laboratories (Wilmington, Mass.). Preimmune sera were obtained from the mice for use as controls in subsequent antibody binding assays. […] Then, on day 0, the mice were immunized subcutaneously in one hind footpad and intramuscularly in the same side shoulder with 20 μg of Torpedo AChR in 100 μl emulsion containing equal volumes of complete Freund's adjuvant and PBS. Thirty days later, the mice were immunized with a similar dose of the receptor in the opposite footpad and shoulder. On the 37th day, test bleeds were obtained from the mice for determination of the antibody titers. Electrophysiological studies were performed on the 38th and 39th days. Finally, the mice were sacrificed on the 40th day and lymph node cells were obtained for T cell studies. To document the electrophysiological evidence of EAMG, amplitudes of serial muscle action potentials were measured by electromyography (EMG) during the repetitive stimulation of the nerve in immunized mice, using the Mystro EMG system (TECA Corporation). A pair of wire electrodes were surgically implanted, encircling the sciatic nerve, two days before EMG. The nerve was stimulated through the implanted electrodes by 3 Hz trains of supramaximal electric current with a duration of 200 microseconds. The corresponding muscle action potentials were recorded with an electrode subcutaneously inserted over the gastrocnemius muscle. A reference electrode was placed at the ankle. Ether inhalation was used during the surgical and recording procedures. […] Students' t-test was used to analyze the differences of amplitude changes between the two groups. A typical myasthenic response of a greater than 10% decrement was considered to constitute an electrophysiological evidence of EAMG. The frequency of electrophysiological EAMG was calculated in each group and analyzed by chi-square test.

[2] = 5 μg i.p. at 11, 7 and 3 days before immunization with Torpedo AChR, EMG on days 38-39

With “mPEG-(α125-148): monomethoxypolyethylene glycol coupled via succinyl to the N-terminal α-NH2 of Torpedo AChR peptide α125-148 (Group 1) ({mPEG-Suc}-KSYCEIIVTHFPFDQQNCTMKLGI; disulfide 4-18 (inferred); UniProt P02710 149-172, looked up, fragment)” the “antibodies against peptide α45-60” value (peptide α45-60) was “no significant suppression”, the “antibodies against whole receptor” value (whole Torpedo AChR) was “no significant suppression” and the “antibodies against peptide α182-198” value (peptide α182-198) was “no significant suppression”. The “antibody binding to peptide α125-148, mean net cpm ± standard deviation” value (peptide α125-148; anti-AChR antisera of individual mice, day 37 bleeds) was 1414±1801 cpm, the “antibody binding to peptide α125-148, pooled antisera in serial dilutions” value (peptide α125-148; pooled serum of each group, various dilutions) was “consistently lower amounts of antibody binding” and the “antibodies bound to peptide α125-148 in anti-AChR antisera” value (peptide α125-148; pretreatment prior to immunization with Torpedo AChR) was “significantly decreased”. The “T cell proliferation profiles” value (lymph node cells (LNC)) was “did not show meaningful differences”, the “mean amplitude change of muscle action potentials” value [1, 2] was -5.4% and the “mice showing a decremental response greater than 10%” value [1, 2] was 20%. The “effect on development of electrophysiological EAMG” value ([1]; prior administration, then immunization with AChR) was “suppresses development of electrophysiological EAMG but the suppression was incomplete”.

From patent publication US5578496A, “Detection of autoantibodies associated with the disease myasthenia gravis” (Board of Regents, Baylor College of Medicine, priority 1994, dated 1996)
